Laboratory results from US9000027B2, “Chk1 suppresses a caspase-2 apoptotic response to DNA damage that bypasses p53, bcl-2 and caspase-3” (Dana-Farber Cancer Institute, Inc., priority 2008, dated 2015).

What was measured:
[1] = system: p53^e7/e7;chk1^MO embryos; experiment: Epistasis analyses in irradiated p53^e7/e7;chk1^MO embryos (live AO assay); type: in vivo; settings: 12.5 Gy
Method: To identify such molecules, we performed in vivo epistasis analyses in zebrafish by knocking down or forcing the expression of candidate pathway contributors in p53^e7/e7;chk1^MO embryos.
Morpholino oligonucleotides (MOs) synthesized by Gene Tools™ LLC, were resuspended in sterile water at a concentration of 1 mM and delivered into zebrafish embryos at the one-cell stage by microinjection. The injection apparatus consisted of a heat-pulled, filamentous RNAse free capillary tube positioned by a micromanipulator (Narishige™ M-125), through which the MO was pressure-injected using a nitrogen air supply controlled by a microinjector (Harvard Apparatus™ PLI-100). MOs were delivered into the yolk of embryos at the one cell stage, just below the cytoplasm. For each previously unpublished MO, the working concentration was determined as the highest dose compatible with normal zebrafish development in the p53^e7/e7 background (maximal subtoxic concentration). […] 100 ng of bcl-xl mRNA in vitro transcribed from full-length zebrafish bcl-xl cDNA cloned into pCS2 were injected as described above. All embryos were grown at 28.5° C. in egg water (5 mM NaCl, 0.17 mM KCl, 0.4 mM CaCl2 and 0.16 mM MgSO4). Knockdown efficiencies for the chk1, chk2, atm, atr, p63, casp8 and casp9 MOs at their maximal subtoxic concentrations are shown in FIG. 10. The sequences of the PCR primers used for RT-PCR-based monitoring of MO efficiencies are available upon request.
Live zebrafish embryos were dechorionated in pronase (2.0 mg/mL in egg water) for 3 to 5 min and rinsed five times in egg water at 18 hpf. […] At 24 hpf, embryos were incubated in […] Acridine Orange (AO; Sigma A-6014) in egg water for 30 min at 28.5° C., followed by 3 quick rinses and three 10-min washes in egg water. 5-10 AO-treated embryos were anesthetized in Tricaine ([…]; 3-amino benzoic acid ethylester from Sigma, A-5040) and mounted laterally on a glass slide in warm 0.5% agarose in egg water by streaking a thin layer of the warm agarose across the surface of the slide, and gently pulling the embryos across the agar with a transfer pipette. Lateral images of each zebrafish were acquired on a Zeiss Axioplan2 fluorescence microscope (5× lens), using OpenLab software and a Hammamatsu C4742-95 digital camera. All images were then converted to 8-bit grayscale in NIH ImageJ using the Image>Type>8-bit command. Next, we cropped the images using the Polyonal Selection tool and the Image>Crop functions to include only the trunk of the animal from the head until the beginning of the yolk tube (MO screen; FIG. 1B) or along the entire spinal cord (epistasis analyses; FIGS. 6A & 6D). The area outside of the selected region of interest was cleared using the Edit>Clear Outside command to create a distinct boundary around the area of interest (this is important as it allows the area of interest to be precisely selected after applying the threshold). Next, we split the acquired images into features of interest and background using the Image>Adjust>Threshold function in NIH ImageJ. We then set the maximum threshold of each image to 255 (the lower slide bar in the Threshold window), and adjusted the minimum threshold to the optimized threshold (see below). The threshold was applied using the Black & White display option, with the following Lut options applied; Thresholded pixels to foreground color; Remaining pixels to background color and Black foreground, white background. […] Next, we re-selected the region of interest on the thresholded image, following the bounded image carefully, and analyzed the pixels of the image using the Analyze>Analyze Particles function. The Minimum Size was set to 1px, the Maximum Size was set to the maximum value of 999999 and the Masks option was selected under the Show pull-down menu. The following extended options were also selected: Display Results; Clear Results; Summarize, Size Distribution and Record Starts. […]

p53^+/+ embryos = experiment: Drug toxicity: AO reactivity and development of inhibitor-treated, non-irradiated p53+/+ embryos; type: in vivo, zebrafish; settings: 0 Gy; Gö6976 1 μM, KU55933 10 μM, Chk2 Inhibitor II 10 μM
Source text: (§1) Chk1 inhibitors hold considerable promise in cancer therapy, as they are expected to synergize with genotoxic agents to kill tumor cells lacking functional p53, without affecting normal cells (Kawabe, 2004; Zhou and Bartek, 2004). […] Gö6976 has not been tested in vivo in a vertebrate model system. We therefore evaluated it as well as specific Chk2 and ATM inhibitors in the zebrafish system. Drug toxicity was monitored by scoring the AO reactivity of inhibitor-treated, but non-irradiated, p53^+/+ embryos (left column in FIG. 8A). Unless otherwise indicated, the inhibitors were applied at 18 hpf (that is, immediately before IR) for a total of 6 hours.
Immediately before IR, 18-hpf embryos were dechorionated and transferred to fresh egg water containing 1% DMSO, with or without the following inhibitors at indicated final concentrations: KU55933 (10 μM; Sigma) (Hickson et al., 2004); Chk2 Inhibitor II (10 μM; Calbiochem) (Arienti et al., 2005); Gö6976 (1 μM; Calbiochem) (Kohn et al., 2003). Unless stated otherwise, embryos were exposed to the inhibitors for 6 hr, transferred to fresh egg water, rinsed five times for 5 min, and labeled with AO. For experiments with Tg(rag2:EGFP-bcl-2) larvae, larvae were incubated in the inhibitor solution at 4 dpf, irradiated at 5 dpf, rinsed at 6 dpf, incubated in fresh inhibitor for an additional 72 hr, and mounted live at 9 dpf for fluorescence microscopic analysis of EGFP expression.

p53 mutant embryos = experiment: Live acridine orange (AO) assay of IR-induced cell death in inhibitor-treated p53 mutant embryos; type: in vivo, zebrafish; settings: 12.5 Gy at 18 hpf; Gö6976 1 μM, KU55933 10 μM, Chk2 Inhibitor II 10 μM; 6 hr
Source text: as §1
Live zebrafish embryos were dechorionated in pronase (2.0 mg/mL in egg water) for 3 to 5 min and rinsed five times in egg water at 18 hpf. Embryos were then γ-irradiated (12.5 Gy) using a ^137Cs-irradiator (Gammacell 1000) at 18 hr post-fertilization (hpf). At 24 hpf, embryos were incubated in […] Acridine Orange (AO; Sigma A-6014) in egg water for 30 min at 28.5° C., followed by 3 quick rinses and three 10-min washes in egg water. 5-10 AO-treated embryos were anesthetized in Tricaine ([…]; 3-amino benzoic acid ethylester from Sigma, A-5040) and mounted laterally on a glass slide in warm 0.5% agarose in egg water by streaking a thin layer of the warm agarose across the surface of the slide, and gently pulling the embryos across the agar with a transfer pipette. Lateral images of each zebrafish were acquired on a Zeiss Axioplan2 fluorescence microscope (5× lens), using OpenLab software and a Hammamatsu C4742-95 digital camera. All images were then converted to 8-bit grayscale in NIH ImageJ using the Image>Type>8-bit command. Next, we cropped the images using the Polyonal Selection tool and the Image>Crop functions to include only the trunk of the animal from the head until the beginning of the yolk tube (MO screen; FIG. 1B) or along the entire spinal cord (epistasis analyses; FIGS. 6A & 6D). The area outside of the selected region of interest was cleared using the Edit>Clear Outside command to create a distinct boundary around the area of interest (this is important as it allows the area of interest to be precisely selected after applying the threshold). Next, we split the acquired images into features of interest and background using the Image>Adjust>Threshold function in NIH ImageJ. We then set the maximum threshold of each image to 255 (the lower slide bar in the Threshold window), and adjusted the minimum threshold to the optimized threshold (see below). The threshold was applied using the Black & White display option, with the following Lut options applied; Thresholded pixels to foreground color; Remaining pixels to background color and Black foreground, white background. […] Next, we re-selected the region of interest on the thresholded image, following the bounded image carefully, and analyzed the pixels of the image using the Analyze>Analyze Particles function. The Minimum Size was set to 1px, the Maximum Size was set to the maximum value of 999999 and the Masks option was selected under the Show pull-down menu. The following extended options were also selected: Display Results; Clear Results; Summarize, Size Distribution and Record Starts. If selected by default, the Exclude on Edges option was deselected. The Area Fraction for each image selection was taken from the Summary window, which is the percentage of pixels in the selection that were black. To ensure valid comparisons of the AO labeling results across all experiments, we quantitatively determined a baseline Area Fraction across a large set of simultaneously irradiated and processed p53^+/+ embryos. […] This analysis yielded a mean value for the total labeled surface area of ˜20% (see FIG. 1B, light gray bar). We included at least 6 p53^+/+ non-injected control embryos in all subsequent AO-labeling experiments. […]

Molecule | effect on IR-induced cell death (AO labeling) of p53^e7/e7;chk1^MO embryos [1] | also measured
casp2 MO2: second casp2 morpholino, gt e3/i3 (SEQ ID NO: 23) (antisense ACCATACTAAAGTACCAACCATGAG; all phosphorodiamidate morpholino (PMO)) | significantly reduced IR-induced death | 
atm MO: morpholino against zebrafish atm, splice acceptor i55/e56 (SEQ ID NO: 14) (GAAAACGGCACCACCTGGTAAAAAC; antisense; all phosphorodiamidate morpholino (PMO)) |  | reduction of the mean p53^e7/e7;chk1^MO AO response [1]: ~60%
O=c1cc(-c2cccc3c2Sc2ccccc2S3)oc(N2CCOCC2)c1 [KU55933] |  | toxicity of the dose used (AO reactivity of non-irradiated embryos) (p53^+/+ embryos): relatively toxic; radiosensitization of p53 mutants (IR-induced AO labeling) (p53 mutant embryos): only modestly radiosensitized
p73 MO: morpholino against zebrafish TAp73 atg/5'UTR (SEQ ID NO: 29) (antisense GGATGTTGGACAATCCACCGCAGGG; all phosphorodiamidate morpholino (PMO)) | failed to compromise IR-induced cell death | 
puma MO: morpholino against zebrafish puma, gt e2/i2 (SEQ ID NO: 27) (antisense AACCAAGCATGACTCTTACCCTCTG; all phosphorodiamidate morpholino (PMO)) | did not significantly affect AO labeling | 
casp8 MO: morpholino against zebrafish casp8 splice donor site (SEQ ID NO: 25) (antisense ACAGGGTTTTAACTCACAGTAGATC; all phosphorodiamidate morpholino (PMO)) | did not differ | 
p63 MO: morpholino against zebrafish p63, gt e3/i3 (SEQ ID NO: 28) (antisense AAAGAGTGGCATACCGTCATTGAAC; all phosphorodiamidate morpholino (PMO)) | failed to compromise IR-induced cell death | 
mismatch version of casp2 MO1: 5 base-pair mismatch casp2 morpholino (SEQ ID NO: 24) (antisense CGGTGAAAGCCTCTTCTACCTCTGG; all phosphorodiamidate morpholino (PMO)) | had no effect | 
NC(=O)c1ccc2nc(-c3ccc(Oc4ccc(Cl)cc4)cc3)[nH]c2c1 [Chk2 Inhibitor II] |  | toxicity of the dose used (AO reactivity of non-irradiated embryos) (p53^+/+ embryos): relatively toxic; radiosensitization of p53 mutants (IR-induced AO labeling) (p53 mutant embryos): only modestly radiosensitized
fadd MO: morpholino against zebrafish FADD, gt e3/i3 (SEQ ID NO: 30) (antisense TAACGTTACCAACCTCGCTCTTTCG; all phosphorodiamidate morpholino (PMO)) | failed to affect AO staining | 
casp2 MO1: morpholino targeting the splice donor site of intron 4 of zebrafish casp2 (SEQ ID NO: 22) (CGCTGAAACCCTGTTGTACCTGTGG; all phosphorodiamidate morpholino (PMO)) |  | AO labeling, of the mean p53^e7/e7;chk1^MO response ([1]; 7.5 hpIR): 16%; mean decrease in AO labeling compared with p53^e7/e7;chk1^MO embryos ([1]; three separate experiments): 6 fold
